Patent publication US20140045809A1, “CORROLES FOR NEUROPROTECTION AND NEURORESCUE” (priority 2008, published 2014)
“Also recorded” adds a separate entry of the source.

Legend:
[1] = Peroxynitrite decomposition rates by manganese corroles (Example 2); type: biochemical; conditions: 385 μM peroxynitrite, pH 7.4, 25° C., absorbance at 302 nm; Table 2
Experimental: The investigations were performed by examining the decay of 385 μM peroxynitrite at pH 7.4 and 25° C. in the presence and absence of various amounts of Mn corrole catalysts 2C-Mn, 2C′-Mn, 2C″-Mn, 3C-Mn and 4C-Mn. The differences between 2C-Mn, 2C′-Mn, and 2C″-Mn is in the identity of the 10-aryl group, which is C6F5, para-anisyl, and phenyl, respectively. The results (one example using 4C-Mn is shown in FIG. 1) were obtained by monitoring changes in absorbance at 302 nm, the λmax of peroxynitrite. The catalytic performances of five of the above compounds were tested; and the thus elucidated kcat values are presented in Table 2. Importantly, in sharp contrast with the corroles, none of the structurally similar manganese (III) porphyrin complexes affected the decomposition of peroxynitrite by any extent (not shown).

[2] = SOD activity (catalytic decomposition of superoxide anion radical), cytochrome C assay; type: biochemical
Experimental: (§1) SOD activity (enzyme-like catalytic decomposition of superoxide anion radical) of the corroles 1C-Fe, 6C-Fe, 1C-Mn, 1C-Cu, 2C-Mn and 3C-Mn was examined via the cytochrome C assay. The catalytic rate constants for decomposition of peroxynitrite (PN) by the newly prepared iron corrole 6C-Fe and manganese corrole 3C-Mn were determined via stopped-flow kinetics as previously described for corroles 1C-Fe, 1C-Mn, and 2C-Mn (Mahammed and Gross, 2006; Gershman et al., 2007). These tests are performed in order to estimate how electronic and structural variables affect reactivity, which is a crucial factor for design of new complexes.

[3] = Catalytic decomposition of peroxynitrite (PN), stopped-flow kinetics (Table 1); type: biochemical
Experimental: as §1

[4] = Rescuing DMSO from damage attributed to the hydroxyl radical (Fenton reaction); type: biochemical; conditions: for Yield (%) or amount of product (Formaldehyde): substrate DMSO
From the text: Corrole complexes were examined with respect to their efficiency of rescuing DMSO from damage attributed to the hydroxyl radical, formed via the Fenton reaction that also involves superoxide anion radical and hydrogen […]. It also mimics reaction occurring in biological systems that are exposed to metal toxicity, the situation that occurs in diseases caused by brain iron accumulation.

RIN-m cells [5] = assay: Protection of RIN-m beta cells against H2O2 toxicity (MTT); type: cell-based, rat; conditions: H2O2 150 μM
Experimental: Two insulin-secreting beta cell lines, rat insulinoma (INS-1E) and RIN-m cells, were used to examine the protective effect of corrole 1C-Fe. The cells were cultured at 37° C., in a humid 5% CO2, 95% air environment in regular RPMI-1640 medium (Invitrogen) supplemented with 5% fetal calf serum (FCS).
After 2 days of culture, RIN-m cells (5×10^4 cells/well in 96-well plates) were treated with corrole 1C-Fe (1-50 μM) before addition of 35 μM of H2O2. Cell viability was evaluated by a colorimetric assay for mitochondrial function estimation using the MTT test as previously described (Gassen et al., 1998) and expressed as percentage of control.
RIN-m cells were grown as described in Example 5. After 3 days of culture, RIN-m cells (2.5×10^4 cells/well in 96-well plates) were treated with corroles 1C-Fe or 5C-Fe or porphyrin 1P-Fe (1 and 20 μM), added 30 min prior to treatment with 35 μM H2O2 and further incubated for 24 h. Cell injury was evaluated by MTT test. […] […].
Protective effect of iron(III) corrole complexes against H2O2-induced toxicity (150 μM) was compared to that of manganese(III) corroles and related porphyrin. […].

RIN-m cells [6] = assay: Protection of RIN-m cells against SIN-1 toxicity (MTT); type: cell-based, rat; conditions: 0.1-20 μM, 30 min before SIN-1 (800 μM), 24 h
Experimental: INS-1E cells or RIN-m cells were cultured in RPMI with low serum content (2% FCS), placed in microtiter plates (96 wells) at a density of 2.5×10^4 cells/well and allowed to attach for 24 h before treatment. Corroles 1C-Fe and 5C-Fe (10 μM) were added 30 min prior to insult with the nitric oxide donor SIN-1 (500 or 600 μM) for a subsequent 24 h period. Cell viability was evaluated by a colorimetric assay for mitochondrial function using 3-(4,5-dimethylthiazol-2-yl)-2,5-diphenyltetrazolium bromide (MTT test), and expressed as percentage of untreated control. Values higher than 100% reflect increased mitochondrial activity induced by the drug. The results represent the mean±SEM of three independent experiments performed under the same conditions.
Insulin-secreting RIN-m cells were incubated in RPMI with low serum content (2% FCS) and placed in microtiter plates (96 wells) at a density of 2.5×10^4 cells/well and allowed to attach for 24 h before treatment. Cells were treated with corroles 1C-Fe, 1C-Mn or 2C-Mn or porphyrins 1P-Fe or 2P-Mn, in various concentrations (0.1-20 μM), for 30 min prior to insult with SIN-1 (800 μM) for a subsequent 24 h period. Cell viability was evaluated by MTT test and expressed as percentage of untreated control.

SH-SY5Y cells [7] = assay: Neuroprotection/neurorescue against SIN-1-induced cell death in SH-SY5Y cells; type: cell-based, human
Experimental: SH-SY5Y cells were cultured in DMEM-Eagle/F-12(HAM) (1:1) containing 10% FCS. Cells were resuspended in medium containing 2% FCS, seeded in microtiter plates (96 wells) and allowed to attach for 24 h before initiation of treatment. […]

nitrotyrosine (Ntyr) = assay: SIN-1-induced cellular protein nitration, nitrotyrosine immunofluorescence in SH-SY5Y cells; type: cell-based, human; conditions: 20 μM corrole, SIN-1 700 μM, 24 h
Experimental: To determine the effect of the corroles on SIN-1-induced cellular protein nitration, SH-SY5Y neuroblastoma cells were treated with SIN-1 (700 μM) in the absence or presence of 20 μM of the corroles 1C-Fe, 2C-Mn, and 3C-Mn. Protein nitration was detected by immunofluorescence analysis using a monoclonal antibody against nitrotyrosine (Ntyr), a biological marker of peroxynitrite.

SH-SY5Y cells [8] = type: cell-based; conditions: 20 μM
Experimental: SH-SY5Y cells were cultured in DMEM-Eagle/F-12(HAM) (1:1) containing 10% FCS. Cells were resuspended in medium containing 2% FCS, seeded in microtiter plates (96 wells) and allowed to attach for 24 h. To examine the neuroprotective effect, cells were pretreated for 30 min with corroles 1C-Fe and 5C-Fe (1-20 μM), and were then exposed to 6-OHDA (60 μM) for further 24 h. For neurorescue assessment, SH-SY5Y cells were first treated with 6-OHDA (60 μM) for 0.5 h, 1.5 h, 3 h and 6 h followed by the addition of compounds 1C-Fe and 5C-Fe (10 μM) for further 24 h.
(§2) SH-SY5Y cells were pretreated with or without corroles 1C-Fe, 2C-Mn and 3C-Mn and porphyrins 1P-Fe and 2P-Mn (20 μM), 30 min before exposure to 6-OHDA (40 μM) for a subsequent 24 h period. Cell viability was evaluated by MTT test and cell death was assessed using the apoptotic cell death detection ELISA kit. For neurorescue, SH-SY5Y cells were first exposed to 40 μM 6-OHDA for 0.5. 1, 1.5 and 3 h, followed by the addition of the compounds 1C-Fe, 2C-Mn and 3C-Mn (20 μM) and incubated for further 24 h. Growth-associated protein (GAP-43) was detected by fluorescence microscopy using a specific primary antibody. Apoptotic nuclei were determined by terminal deoxynucleotidyl transferase-mediated UTP-digoxigenin nick end labeling analysis. 4′,6-Diamidino-2-phenylnidole (DAPI) staining was applied for nuclear labeling. […]

cleaved caspase-3 = assay: Cleaved caspase-3 level in 6-OHDA-treated SH-SY5Y cells, immunofluorescence; type: cell-based, human; conditions: 20 μM, 30 min before 6-OHDA (40 μM), 24 h
Experimental: as §2
Since 6-OHDA is also known to induce apoptosis in various cell types, including SH-SY5Y (von Coelln et al. 2001; Nie et al. 2002; Shimizu et al. 2002; Jordan et al. 2004), we further tested effect of corroles on the levels of the apoptotic marker, cleaved caspase-3, a major executer of the mitochondrial intrinsic pathway of apoptosis.

SH-SY5Y cells [9] = type: cell-based; conditions: up to 50 μM; data not shown
[10] = CuSO4/ascorbate, no additive 44 μM
[11] = CuSO4/glutathione, no additive 11 μM
[12] = 30 min before 6-OHDA (40 μM), 24 h

C[n+]1ccc(C2=C3C=CC4=[N+]3[Mn-]35[n]6c2ccc6-c2ccc([n]23)C(c2cc[n+](C)cc2)=c2ccc([n]25)=C4c2ccccc2)cc1 (centres unmarked) [2C″-Mn]
kcat, peroxynitrite decomposition rate [1]: 81000 M⁻¹ s⁻¹

C[n+]1ccccc1C1=C2C=CC3=[N+]2[Mn-]24[n]5c1ccc5-c1ccc([n]12)C(c1cccc[n+]1C)=c1ccc([n]14)=C3c1c(F)c(F)c(F)c(F)c1F (centres unmarked) [4C-Mn, 5,15-bis(N-methyl-2-pyridilium) 10-pentafluorophenyl corrolato manganese(III)]
kcat, peroxynitrite decomposition rate [1]: 160000 M⁻¹ s⁻¹

O=S(=O)(O)c1cc2[n]3c1C(c1c(F)c(F)c(F)c(F)c1F)=C1C=CC4=[N+]1[Cu-]31[n]3c(cc(S(=O)(=O)O)c3-2)C(c2c(F)c(F)c(F)c(F)c2F)=c2ccc([n]21)=C4c1c(F)c(F)c(F)c(F)c1F (centres unmarked) [1C-Cu, 2,17-bis(sulfonato)-5,10,15-tris(pentafluorophenyl)-corrolato copper(III)]
IC50 [2]: 12 µM

COc1ccc(C2=c3ccc4[n]3[Mn-]35[n]6c(ccc6-c6ccc([n]63)C=4c3cc[n+](C)cc3)C(c3cc[n+](C)cc3)=C3C=CC2=[N+]35)cc1 (centres unmarked) [2C′-Mn]
kcat, peroxynitrite decomposition rate [1]: 77000 M⁻¹ s⁻¹

O=S(=O)(O)c1cc2[n]3c1C(c1c(F)c(F)c(F)c(F)c1F)=C1C=CC4=[N+]1[Mn-]31[n]3c(cc(S(=O)(=O)O)c3-2)C(c2c(F)c(F)c(F)c(F)c2F)=c2ccc([n]21)=C4c1c(F)c(F)c(F)c(F)c1F (centres unmarked) [1C-Mn, 2,17-bis(sulfonato)-5,10,15-tris(pentafluorophenyl)-corrolato manganese(III)]
IC50 [2]: 5.9 µM
kcat, catalytic rate constant for decomposition of PN [3]: 40000 M⁻¹ s⁻¹
Yield (%) or amount of product (Formaldehyde) [4, 10]: 20 µM
Yield (%) or amount of product (Formaldehyde) [4, 11]: 7 µM
cytoprotective effect against H2O2-induced toxicity (RIN-m cells [5]): totally inefficient; also recorded: inefficiency
protective effect against SIN-1 induced toxicity (MTT), comparative (RIN-m cells [6]): ineffective

C[n+]1ccc(C2=C3C=CC4=[N+]3[Mn-]35[n]6c2ccc6C(c2c(F)c(F)c(F)c(F)c2F)=C2C=CC(=[N+]23)C(c2cc[n+](C)cc2)=c2ccc([n]25)=C4c2c(F)c(F)c(F)c(F)c2F)cc1.[I-].[I-] (centres unmarked) [2P-Mn, 5,15-bis(N-methyl-4-pyridilium)-10,20-bis-(pentafluoro-phenyl)porphyrinato manganese(III) diiodide salt, reference compound]
cytoprotective effect against H2O2-induced toxicity (RIN-m cells [5]): totally inefficient; also recorded: inefficiency

COc1c(F)c(F)c(C2=C3C=CC4=[N+]3[Fe-]35[n]6c(cc(S(=O)(=O)O)c62)-c2c(S(=O)(=O)O)cc([n]23)C(c2c(F)c(F)c(OC)c(F)c2F)=c2ccc([n]25)=C4c2c(F)c(F)c(OC)c(F)c2F)c(F)c1F (centres unmarked) [6C-Fe, 2,17-bis-sulfonato-5,10,15-tris(p-methoxy-tetra-fluorophenyl)iron(III) corrole]
IC50 [2]: 1.18 µM

C[n+]1ccccc1C1=C2C=CC3=[N+]2[Mn-]24[n]5c1ccc5-c1ccc([n]12)C(c1cccc[n+]1C)=c1ccc([n]14)=C3c1cccc[n+]1C (centres unmarked) [3C-Mn, 5,10,15-tris(N-methyl-2-pyridilium)corrolato manganese(III)]
IC50 [2]: 3.27 µM
kcat, catalytic rate constant for decomposition of PN [3]: 25000 M⁻¹ s⁻¹
kcat, peroxynitrite decomposition rate [1]: 25000 M⁻¹ s⁻¹
Yield (%) or amount of product (Formaldehyde) [4, 10]: 0 µM
Yield (%) or amount of product (Formaldehyde) [4, 11]: 0 µM
preventing oxidative damage / protection against metal-induced oxidation of substrates ([4]; summary of Table 3): protect better than corrole 1C-Mn
cytoprotection against different SIN-1 concentrations (SH-SY5Y cells [7]; 25 μM corrole, FIG. 12C): protect cells against different SIN-1 concentrations
protection against SIN-1 (MTT reduction analysis and ELISA assay) (SH-SY5Y cells [7]; 30 min before SIN-1, 24 h (Example 12)): protect, in a dose-dependent manner; also recorded: more effective not only than 2C-Mn
nitrotyrosine (Ntyr) staining, SIN-1-induced (nitrotyrosine (Ntyr)): totally abolished
protection against 6-OHDA compared with porphyrins 1P-Fe and 2P-Mn (SH-SY5Y cells [8]; 6-OHDA 40 μM, immunofluorescence): remarkable superiority over the porphyrins
6-OHDA-induced cytotoxicity (MTT, cell death ELISA) (SH-SY5Y cells [8]; [12]): significantly attenuated 6-OHDA-induced cytotoxicity
cell mortality, morphology and apoptotic nuclei (GAP-43 immunofluorescence, TUNEL, DAPI) (SH-SY5Y cells [8]; [12]): significantly attenuated 6-OHDA-induced cell mortality, improved cell morphology and reduced the number of apoptotic nuclei
6-OHDA-induced increase of cleaved caspase-3 (cleaved caspase-3): totally
preventing H2O2-mediated cytotoxicity (SH-SY5Y cells [9]): not effective
